{"source": "patent US10414721B1", "about": "“Inhibitor of endocannabinoid cellular reuptake” (University of Bern, priority 2018, dated 2019)", "key": {"AEA uptake in U937 cells": {"tested_on": "AEA uptake in U937 cells", "assay": "AEA uptake inhibition in U937 cells", "assay_type": "cell-based", "settings": "for IC50 / IC50 for AEA uptake inhibition: U937 cells", "description": "Based on the natural product (2E,4E)-N-isobutylamidedodeca-2,4-dienamide from the medicinal plant E. purpurea as a starting point, a library of 634 of analogs and derivatives with varying alkyl chain length was synthesized, and structure of the head group moiety analyzed. All new derivatives were tested for AEA uptake inhibition in U937 cells using a high-content screening assay.\n(§1) All radioactivity-based AEA and 2-AG uptake and release assays performed in U937, and HMC-1 cells were carried out using two different assay formats as previously reported. AEA and 2-AG uptake assay in Neuro2a and primary mouse cortical neurons were performed with a different method disclosed in Chicca 2017."}, "[1]": {"assay": "14C-WOBE437 saturation binding to U937 membranes", "settings": "for competition with 14C-WOBE437 binding: brain and U937 membranes", "description": "(§2) In addition to their effects on AEA uptake, the inhibition of FAAH was thoroughly investigated for all nanomolar inhibitors. […] The lack of significant FAAH inhibition by WOBE437 was established in different assay systems using human recombinant enzyme, cell and brain homogenates. […] Importantly, WOBE437 (1 μM) inhibited AEA uptake also in primary mouse cortical neurons by 50% after 2-7 min of incubation with a smaller inhibition (20-35%) upon longer incubation (10-20 min, FIG. 1F). […] In Neuro2a cells, incubation with WOBE437 (5 μM) for 2 and 5 min reduced overall uptake by 40%. (FIG. 1G). […] Then cells were treated with radiolabeled ^14C-WOBE437 to investigate the cellular penetration of the compound. In U937 cells, the vast majority of the radioactive signal was collected in the extracellular and membrane-bound fractions (75-90%), with negligible amounts (5-9%) detected in the intracellular fraction (FIGS. 2A-D). […] In order to further investigate this point, ^14C-WOBE437 was applied to membrane preparations generated in-house from mouse brain and U937 cells. […] The Kd values are in line with the IC50 values shown in the functional AEA uptake assays in Neuro2a and U937 cells (FIGS. 1C and 1D). In further experiments, 10 nM of ^14C-WOBE437 was co-incubated with different concentrations of AEA and U937 membranes. […] Furthermore, the endocannabinoids AEA and noladin ether and the AEA uptake inhibitor OMDM-2 could compete with ^14C-WOBE437 binding in brain and U937 membranes. […] Secondary plots of the slope (Kmapp/Vmaxapp vs. [WOBE437]) and intercept (1/Vmaxapp vs. [WOBE437]) confirmed the competitive inhibition of AEA uptake."}, "[2]": {"tested_on": "main EC degrading enzymes (FAAH, MAGL)", "settings": "cited from earlier work"}, "C57BL6/J mice": {"tested_on": "C57BL6/J mice", "settings": "repeated administrations; cited from earlier work"}, "CB1 receptors": {"tested_on": "CB1 receptors", "settings": "repeated administrations; cited from earlier work"}, "[3]": {"tested_on": "2-AG uptake in Neuro2a cells", "assay": "2-AG uptake and hydrolysis in Neuro2a cells", "assay_type": "cell-based, mouse", "settings": "Neuro2a cells, time course", "description": "as §1"}, "[4]": {"assay": "LC-MS/MS quantification of WOBE437 in tissues after i.p. injection", "assay_type": "in vivo, mouse", "settings": "10 mg/kg i.p., C57BL6/N mice, after 1 h"}, "U937 cells": {"tested_on": "U937 cells", "assay": "Localization of 14C-WOBE437 in cellular fractions of U937 cells", "assay_type": "cell-based", "description": "FIGS. 2A-D: Different initial amounts of ^14C-WOBE437 were incubated for 15 min with 1×10^6 of U937 cells at 37° C. Afterwards, cells were centrifuged and the ^14C-signal was measured from the extracellular (light grey), membrane-bound (dark grey) and intracellular (white) fraction. The results are reported in absolute amounts and as percentage of the initial amount.\nThe cell penetration and tissue distribution of ^14C-WOBE437 was assessed in U937 cells and C57BL6/N mice as described in Chicca 2017."}, "[5]": {"assay": "14C-WOBE437 saturation binding to mouse brain membranes", "settings": "mouse brain membranes", "description": "as §2"}}, "note": "Where two headings read alike, the source gives them in different places.", "data": [{"compound": "CCCCCCC/C=C/C=C/C(=O)NCCc1cccnc1", "note": "[2-(pyridin-3-yl)]ethyl]", "values": [{"measurement": "IC50", "setting": "AEA uptake in U937 cells; 100 nM total AEA", "result": 101, "unit": "nM"}, {"measurement": "IC50 for AEA uptake inhibition", "setting": "AEA uptake in U937 cells; 100 nM total AEA", "result": "nanomolar range"}]}, {"compound": "CCCCCCC/C=C/C=C/C(=O)NCCO", "note": "[(2E,4E)-dodecadienoyl ethanolamine]", "values": [{"measurement": "IC50", "setting": "AEA uptake in U937 cells", "result": 3470, "unit": "nM"}]}, {"compound": "CCCCC/C=C\\C/C=C\\C/C=C\\C/C=C\\CCCC(=O)NCCO", "note": "[AEA, N-arachidonoylethanolamine]", "values": [{"measurement": "effect on 14C-WOBE437 binding curve", "setting": "[1]; 10 nM 14C-WOBE437 co-incubated with increasing AEA", "result": "increase of Kd values, while not significantly modifying Bmax values"}, {"measurement": "competition with 14C-WOBE437 binding", "setting": "[1]", "result": "could compete"}]}, {"compound": "CCCCC/C=C\\C/C=C\\C/C=C\\C/C=C\\CCCC(=O)Nc1ccc(O)cc1", "note": "[AM404, N-(4-hydroxyphenyl)arachidonamide]", "values": [{"measurement": "substrate of FAAH or MAGL", "setting": "[2]; h/rFAAH or hMAGL", "result": "substrates for h/rFAAH or hMAGL"}]}, {"compound": "O=C(Oc1ccc([N+](=O)[O-])cc1)N1CCC(C(O)(c2ccc3c(c2)OCO3)c2ccc3c(c2)OCO3)CC1", "note": "[JZL184]", "values": [{"measurement": "2-AG overflow relative to basal levels", "setting": "C57BL6/J mice", "result": "10-12 times basal levels"}, {"measurement": "effect on CB1 receptors", "setting": "CB1 receptors", "result": "desensitize CB1 receptors"}, {"measurement": "effect on 2-AG uptake and hydrolysis", "setting": "[3]", "result": "specifically inhibited hydrolysis"}]}, {"compound": "CCCCCCC/C=C/C=C/C(=O)NCCc1ccc2c(c1)OCCO2", "note": "[N-(2,3-dihydro-1,4-benzodioxin-6-yl)ethyl dodeca-2E,4E-dienamide]", "values": [{"measurement": "potency for AEA uptake relative to WOBE437 (times less potent)", "setting": "AEA uptake in U937 cells", "result": "approximately 13 times"}, {"measurement": "IC50 for AEA uptake inhibition", "setting": "AEA uptake in U937 cells; 100 nM total AEA", "result": "nanomolar range"}]}, {"compound": "CCCCCCCC/C=C\\CCCCCCCC(=O)N[C@@H](CO)Cc1ccc(O)cc1", "note": "[OMDM-2]", "values": [{"measurement": "competition with 14C-WOBE437 binding", "setting": "[1]", "result": "could compete"}]}, {"compound": "CCCCC/C=C\\C/C=C\\C/C=C\\C/C=C\\CCCC(=O)NCc1ccoc1", "note": "[UCM707]", "values": [{"measurement": "substrate of FAAH or MAGL", "setting": "[2]; h/rFAAH or hMAGL", "result": "substrates for h/rFAAH or hMAGL"}]}, {"compound": "CCCCC/C=C\\C/C=C\\C/C=C\\C/C=C\\CCCC(=O)Nc1ccc(O)cc1C", "note": "[VDM11, N-(2-methyl-4-hydroxy-phenyl)-arachidonamide]", "values": [{"measurement": "substrate of FAAH or MAGL", "setting": "[2]", "result": "substrates for h/rFAAH or hMAGL"}]}, {"compound": "CN(Cc1cccc(-c2ccncc2)c1)C(=O)Oc1ccc(-c2ccc(C(N)=O)cc2)cc1", "note": "[WWL70, reference compound]", "values": [{"measurement": "effect on 2-AG uptake and hydrolysis", "setting": "[3]", "result": "prevented 2-AG uptake and hydrolysis occurring at later time points"}]}, {"compound": "CCCCCCC/C=C/C=C/C(=O)NCCc1ccc(OC)c(OC)c1", "note": "[^14C-WOBE437]", "values": [{"measurement": "Bmax", "setting": "[1]; U937 membranes", "result": "15.6±1.4", "unit": "fmol/mg protein"}, {"measurement": "Kd", "setting": "[1]; U937 membranes", "result": "11.3 ± 2.4", "unit": "nM"}, {"measurement": "tissue distribution of 14C signal", "setting": "[4]", "result": "highest ^14C signal was measured in adipose tissue"}, {"measurement": "membrane-associated signal", "setting": "U937 cells; 10 nM", "result": "9.8 % of total signal"}, {"measurement": "membrane-associated signal", "setting": "U937 cells; 100 nM", "result": "1.7 % of total signal"}, {"measurement": "cell-associated radioactive signal over time", "setting": "U937 cells; 100 nM, 0-30 min", "result": "approximately 10 % of total signal"}, {"measurement": "membrane-associated signal", "setting": "U937 cells; 1 μM", "result": "0.7 % of total signal"}, {"measurement": "membrane-associated signal", "setting": "U937 cells; 10 μM", "result": "0.7 % of total signal"}, {"measurement": "radioactive signal in extracellular and membrane-bound fractions", "setting": "U937 cells; U937 cells, 15 min, 37° C.", "result": "75-90%"}, {"measurement": "radioactive signal in intracellular fraction", "setting": "U937 cells; U937 cells, 15 min, 37° C.", "result": "5-9%"}, {"measurement": "Bmax", "setting": "[5]", "result": "18.2±1.5", "unit": "fmol/mg protein"}, {"measurement": "Kd", "setting": "[5]; read-out: Kd", "result": "15.7 ± 2.8", "unit": "nM"}]}, {"compound": "CCCCC/C=C\\C/C=C\\C/C=C\\C/C=C\\CCCCOC(CO)CO", "note": "[noladin ether]", "values": [{"measurement": "competition with 14C-WOBE437 binding", "setting": "[1]", "result": "could compete"}]}, {"compound": "CCCCCCCC=CC=CC(=O)NCc1cccnc1", "note": "[pyridin-3-ylmethyl]", "values": [{"measurement": "IC50", "setting": "AEA uptake in U937 cells; 100 nM total AEA", "result": 2690, "unit": "nM"}]}, {"compound": "CCCCCCCC=CC=CC(=O)NCCc1ccccc1", "note": "[unsubstituted parent compound]", "values": [{"measurement": "IC50", "setting": "AEA uptake in U937 cells; 100 nM total AEA", "result": 1140, "unit": "nM"}]}, {"compound": "benzodioxole", "values": [{"measurement": "potency for AEA uptake relative to WOBE437 (times less potent)", "setting": "AEA uptake in U937 cells", "result": "approximately 13 times"}]}]}
